In series [1] the test system is Staphylococcus aureus ATCC 43300 (MRSA). Put plainly: microbe, parasite or virus in culture. The settings on record: for MIC Sa: CO‐ADD screening; for MIC: n=2; for MIC values as low as (panel of S. aureus strains): lowest MIC within the S. aureus panel. The class given is cell-based. The method in brief:
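Mid-log cultures in cation-adjusted Mueller Hinton broth at 5 × 10^5 CFU/mL exposed to 2-fold compound dilutions (20–0.156 µM or 200–0.006 µM; ≤0.5% or 1% DMSO), 37 °C for 18 h without shaking.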

In series [2] the test system is Acinetobacter baumannii ATCC 19606. Put plainly: Antibacterial MIC assay. The class given is cell-based. The settings on record: CO‐ADD screening. How it is done:
(§1) All compounds submitted to CO‐ADD are initially screened against five bacterial strains (Staphylococcus aureus (MRSA), E. coli, Klebsiella pneumoniae, Pseudomonas aeruginosa, Acinetobacter baumannii) and two fungal strains (Candida albicans, Cryptococcus neoformans) at a single concentration (32 μg/mL or 20 μM) performed as a high‐throughput primary screening.[[11], [17a]] Any compounds that show significant growth inhibition against any of the tested strains at this step are then evaluated in a dose‐response assay against these same strains. […]
(§2) Smiles: C1C=CCCC(=CC1)C1=CCCC=CCC1.C[Pt]C.C[Pt]C […]
(§3) ATCC strains were sourced from the American Type Culture Collection and NRS strains from NARSA (Network on Antimicrobial Resistance in Staphylococcus aureus) via BEI Resources (www.beiresources.org), with clinical MSSA and MRSA isolates from Prof Graeme Nimmo, Queensland […]
(§4) Health Central Pathology. […]
(§5) Antibacterial minimum inhibitory concentration (MIC) assay
(§6) Compound Assay Plate Preparation: Compounds were dissolved in DMSO at 10mM (CO-ADD screening) or 4 mM (follow up screening) and were plated in a 2-fold dose response from 20 to 0.156 µM or 200 to 0.006 µM respectively, with a maximum of 0.5% or 1% DMSO, final in the assay […]
(§7) plated in a 2-fold dose response from 200 to 0.006 µM, with a maximum of 1 % DMSO, final in the assay concentration. (in-house screening)
(§8) For all the bacterial assays, each strain was cultured in Cation-adjusted Mueller Hinton broth (CAMHB; Bacto Laboratories 212322) at 37 °C overnight. A sample of each culture was then diluted 40-fold in fresh CAMHB and incubated at 37 °C for 1.5–3 h. The resultant mid-log phase cultures were diluted with CAMHB (CFU mL−1 measured by OD600), then added to each well of the compound-containing plates (384-well non-binding surface (NBS) plates; Corning CLS3640), giving a cell density of 5 × 10^5 CFU mL−1 and a total volume of 50 μL. Plates were covered and incubated at 37 °C for 18 h without shaking. Inhibition of bacterial growth was determined measuring absorbance at 600 nm (OD600), using media only as negative control and bacteria without inhibitors as positive control. MIC values were determined as the lowest concentration at which the growth was inhibited at ≥80%. Colistin sulfate (Sigma C4461) and vancomycin HCl (Sigma 861987) were used as internal controls on each plate for Gram-negative and Gram-positive bacteria, respectively. […]

Series [3] concerns Escherichia coli ATCC 25922. As to the kind of experiment: Antibacterial MIC assay. Particulars: CO‐ADD screening. Type of series: cell-based. How it is done:
as §1, §2, §3, §4, §5, §6, §7, §8

Series [4] has as its system Pseudomonas aeruginosa ATCC 27853. Put plainly: Antibacterial MIC assay. Particulars: CO‐ADD screening. Type of series: cell-based. On the procedure:
as §1, §2, §3, §4, §5, §6, §7, §8

For series [5], the system named is Klebsiella pneumoniae ATCC 700603 (ESBL SHV‐18). On the procedure:
as §1, §2, §3, §4, §5, §6, §7, §8

Series [6] has as its system Candida albicans ATCC 90028. Put plainly: Antifungal MIC (CO-ADD screening). The class given is cell-based. On the procedure:
(§9) InChIKey: PHIWIZAHOBWKFJ-HPCBIOCFSA-N
(§10) Health Central Pathology. Candida albicans (ATCC 90028, NCCLS 11), Cryptococcus neoformans
as §5
(§11) concentration. (in-house screening)
(§12) Bacto Laboratories 212322) at 37 °C overnight.

Series [7] has as its system Cryptococcus neoformans H99 ATCC 208821. Put plainly: Antifungal MIC (CO-ADD screening). Type of series: cell-based. On the procedure:
as §9, §10, §5, §11, §12

For a further series, the system named is human red blood cells. As to the kind of experiment: Haemolysis assay. The settings on record: for Haemolysis HC10: concentration inducing 10 % haemolysis; for Haemolysis HC50: concentration inducing 50 % haemolysis. Type of series: cell-based. The method in brief:
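Human red blood cells were exposed to compounds at 0.8–100 µM for 1 h at 37 °C without shaking. HC10 and HC50 were derived from dose-response fits, with melittin serving as the positive haemolytic control.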

The subject of series [8] is Staphylococcus aureus ATCC 25923, MSSA. Put plainly: Antibacterial MIC assay, Gram-positive panel. The class given is cell-based. The settings on record: n=4. The method in brief: (§13)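 MIC is defined here as the lowest concentration inhibiting growth by ≥80% relative to untreated bacteria. The assay used OD600 in CAMHB after an 18 h, 37 °C incubation at 5 × 10^5 CFU/mL. Compound was dosed in 2-fold steps with DMSO capped at 0.5–1% final.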

For series [9], the system named is Staphylococcus aureus VRS 1, VRSA (VanA). Put plainly: Antibacterial MIC assay, Gram-positive panel. The settings on record: n=4. The class given is cell-based. Put shortly:
as §13

In series [10] the test system is Bacillus subtilis ATCC 6051, type strain. As to the kind of experiment: Antibacterial MIC assay, Gram-positive panel. Particulars: n=2. The class given is cell-based. Put shortly:
as §13

The subject of series [11] is Enterococcus faecalis ATCC 29212, control strain. Put plainly: Antibacterial MIC assay, Gram-positive panel. The class given is cell-based. Particulars: n=4. Put shortly: as §13
In series [12] the test system is Enterococcus faecium ATCC 35667, type strain. Put plainly: Antibacterial MIC assay, Gram-positive panel. Type of series: cell-based. The settings on record: n=4. Put shortly:
as §13

Series [13] relates to Enterococcus faecium ATCC 51559, MDR, VRE (VanA). Put plainly: Antibacterial MIC assay, Gram-positive panel. The class given is cell-based. The settings on record: n=2. Put shortly: as §13
Series [14] concerns Enterococcus faecium Clinical Isolate, VRE (VanA). As to the kind of experiment: Antibacterial MIC assay, Gram-positive panel. Type of series: cell-based. Particulars: n=4. Put shortly:
as §13

Series [15] has as its system Staphylococcus epidermidis NRS 60, VISE. As to the kind of experiment: Antibacterial MIC assay, Gram-positive panel. Type of series: cell-based. Particulars: n=4. The method in brief: as §13
A further series relates to S. aureus NRS 17 GISA. As to the kind of experiment: MIC in the presence of human serum (serum reversal). The class given is cell-based, Staphylococcus aureus. The settings on record: 50% serum. Put shortly:
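MIC determination repeated in the presence of 10% or 50% human serum. Bacteria grown overnight at 37 °C, diluted from mid-log cultures, and tested at a final concentration range of 0.8–100 µM.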

Marks after values point to notes of the source that are not given here.

For `C1=C\CC/C=C\CC/1.[Cl-].[Cl-].[Pt+2]` [Pt1, Pt(COD)Cl2], the “MIC Sa” value in series [1] was 0.625 to 2.5 µM. The MIC in series [1] (Table 2 panel) is 0.39^[b] μg/mL; in [8] (Table 2 panel) it was 3.125^[a] μg/mL; in [9] (Table 2 panel), 12.5^[a] μg/mL; in [10] (Table 2 panel), 6.25^[b] μg/mL; in series [11] (Table 2 panel), 50–100^[a] μg/mL; in series [12] (Table 2 panel) it was 25^[a] μg/mL. For the same compound, the MIC is 12.5^[b] μg/mL in series [13] (Table 2 panel), 25–50^[a] μg/mL in [14] (Table 2 panel) and 3.125^[a] μg/mL in [15] (Table 2 panel). Also, the “MIC values as low as (panel of S. aureus strains)” value in [1] was 0.39 µM. In [2], the “MIC Ab” value is greater than 20 µM. For the same compound, the “MIC Ec” value in series [3] was greater than 20 µM. Further, the “MIC Pa” value in series [4] is greater than 20 µM. Further, the “MIC Kp” value in series [5] is greater than 20 µM. Further, the “MIC Ca” value in series [6] lay within 10 to 20 µM. Also, the “MIC Cn” value in series [7] was 1.25 to 5 µM. In addition, the “Haemolysis HC10” value in the series on human red blood cells is greater than 100 µM. Moreover, the “Haemolysis HC50” value in the series on human red blood cells was greater than 100 µM. For the same compound, in the series with S. aureus NRS 17 GISA, the MIC in the presence of human serum was greater than 200 µM.
In the case of `C1=CCC/C=C\CC1.[I][Pt][I]` [Pt2, Pt(COD)I2], the “MIC Sa” value in [1] came to 1.25 µM. Further, the MIC was 0.39–0.78^[b] μg/mL in series [1] (Table 2 panel); 1.56–3.125^[a] μg/mL in series [8] (Table 2 panel); 6.25^[a] μg/mL in [9] (Table 2 panel); 3.125–6.25^[b] μg/mL in [10] (Table 2 panel); 25–50^[a] μg/mL in series [11] (Table 2 panel); 25^[a] μg/mL in series [12] (Table 2 panel). Moreover, the figures for the MIC in series [13] (Table 2 panel), in [14] (Table 2 panel) and in series [15] (Table 2 panel) were 12.5–25^[b] μg/mL, 25^[a] μg/mL and 6.25^[a] μg/mL, respectively. For the same compound, in series [1], the “MIC values as low as (panel of S. aureus strains)” value was determined as 0.39 µM. The “MIC Ab” value in [2] is greater than 20 µM. Further, the “MIC Ec” value in [3] is greater than 20 µM. The “MIC Pa” value in series [4] is greater than 20 µM. The “MIC Kp” value in [5] is greater than 20 µM. Besides, the “MIC Ca” value in series [6] was 10 µM. The “MIC Cn” value in series [7] amounted to 2.5 µM. Moreover, the “Haemolysis HC10” value in the series on human red blood cells is greater than 100 µM. Also, the “Haemolysis HC50” value in the series with human red blood cells is greater than 100 µM. Moreover, the MIC in the presence of human serum with S. aureus NRS 17 GISA was greater than 200 µM.
For `CCC1=CCCC=CCC1.[CH3][Pt][Cl]` [Pt7], in series [1], the “MIC Sa” value is greater than 20 µM. Also, the MIC in series [1] (Table S1 panel) is 200 µM; in [8] (Table S1 panel), greater than 200 µM; in series [9] (Table S1 panel), greater than 200 µM; in series [10] (Table S1 panel), greater than 200 µM; in series [11] (Table S1 panel), greater than 200 µM; in [12] (Table S1 panel), greater than 200 µM. The MIC in series [13] (Table S1 panel) is 200 µM; in [14] (Table S1 panel), greater than 200 µM; in series [15] (Table S1 panel) it was greater than 200 µM. For the same compound, in series [2], the “MIC Ab” value was greater than 20 µM. The “MIC Ec” value in series [3] is greater than 20 µM. In addition, the “MIC Pa” value in series [4] is greater than 20 µM. Also, the “MIC Kp” value in [5] was greater than 20 µM. The “MIC Ca” value in [6] is 10 µM. Besides, the “MIC Cn” value in [7] was 20 µM. Besides, the “Haemolysis HC10” value in the series on human red blood cells turned out to be 10.27 µM. For the same compound, the “Haemolysis HC50” value in the series on human red blood cells turned out to be 52.12 µM. Besides, the MIC in the presence of human serum in the series with S. aureus NRS 17 GISA is greater than 200 µM.

Values taken from publication PMC8596843, “Platinum Cyclooctadiene Complexes with Activity against Gram‐positive Bacteria” (Chemmedchem, 2021).
